The record followed here is patent US8785459B2, “Quinazoline compounds as kinase inhibitors” (Development Center for Biotechnology, priority 2011, dated 2014).

One assay deals with A549. Description: Anti-proliferative activity, CellTiter-96 assay, A549. The assay is classed as cell-based. Particulars: Homo sapiens, A549 cells, 72 hours incubation. The method, then: (§1) Antiproliferative Activity
(§2) The anti-proliferative activities of the compounds with formula (I) and formula (II) with respect to four human cancer cell lines (A549, A375, MDA-MB-231, and COLO205) were measured using the CellTiter™-96 assay kit (Promega) following the manufacturer's instructions. In brief, the cells were maintained in DMEM containing 10% FCS and incubated at 37° C. in 5% CO2 atmosphere. Cells were plated at a density of 2000 cells/well of a 96-well plate for 24 h, then treated with different concentrations of the compounds, and incubated for another 72 hours. At the end of the incubation, CellTiter™-96 Aqueous One Solution Reagent (Promega) was added and incubated for another 4.0 hours. Cell viability was determined by measuring absorbance at 490 nm using EMax® microplate reader (Molecular Devices). Data were processed and analyzed using GraphPad Prism version 4.

The next assay has as its system COLO205. Description: Anti-proliferative activity, CellTiter-96 assay, COLO205. The class given is cell-based. Particulars: Homo sapiens, COLO 205, COLO205 cells, 72 hours incubation. The method, then: as §1, §2
Another assay has as its target C-Raf (Homo sapiens (Human), UniProt P04049). The experiment in a line: Raf kinase assay (C-Raf), [33P] incorporation into MEK1(K97R). The assay is classed as biochemical. Put shortly: (§3)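 Recombinant C-Raf (2 ng) or B-Raf or B-Raf V600E (5 ng each) phosphorylated 500 ng MEK1(K97R) with 8 μM ATP plus [33P]ATP, pH 7.5, 30 min at 30 °C. Filter-captured 33P counted. IC50 from 3-fold compound dilutions run in duplicate.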

Another assay has as its system A375. Description: Anti-proliferative activity, CellTiter-96 assay, A375. The assay is classed as cell-based. Particulars: Homo sapiens, A-375, A375 cells, 72 hours incubation. Here is the method:
as §1, §2

Another assay has as its system MDA-MB-231. The experiment in a line: Anti-proliferative activity, CellTiter-96 assay, MDA-MB-231. The class given is cell-based. Particulars: Homo sapiens, MDA-MB-231 cells, 72 hours incubation. The method, then:
as §1, §2

Another assay has as its target B-Raf (V600E) (Homo sapiens (Human), UniProt P15056, V600E). Description: Raf kinase assay (B-Raf (V600E)), [33P] incorporation into MEK1(K97R). The class given is biochemical. Put shortly:
as §3

A further assay concerns the target B-Raf (Homo sapiens (Human), UniProt P15056). Description: Raf kinase assay (B-Raf), [33P] incorporation into MEK1(K97R). The class given is biochemical. Particulars: for inhibition at 1 µM: 1.0 μM compound, read-out: B-Raf inhibition at 1.0 μM. The method in brief: as §3

Chain of C-Raf (P04049 whole entry): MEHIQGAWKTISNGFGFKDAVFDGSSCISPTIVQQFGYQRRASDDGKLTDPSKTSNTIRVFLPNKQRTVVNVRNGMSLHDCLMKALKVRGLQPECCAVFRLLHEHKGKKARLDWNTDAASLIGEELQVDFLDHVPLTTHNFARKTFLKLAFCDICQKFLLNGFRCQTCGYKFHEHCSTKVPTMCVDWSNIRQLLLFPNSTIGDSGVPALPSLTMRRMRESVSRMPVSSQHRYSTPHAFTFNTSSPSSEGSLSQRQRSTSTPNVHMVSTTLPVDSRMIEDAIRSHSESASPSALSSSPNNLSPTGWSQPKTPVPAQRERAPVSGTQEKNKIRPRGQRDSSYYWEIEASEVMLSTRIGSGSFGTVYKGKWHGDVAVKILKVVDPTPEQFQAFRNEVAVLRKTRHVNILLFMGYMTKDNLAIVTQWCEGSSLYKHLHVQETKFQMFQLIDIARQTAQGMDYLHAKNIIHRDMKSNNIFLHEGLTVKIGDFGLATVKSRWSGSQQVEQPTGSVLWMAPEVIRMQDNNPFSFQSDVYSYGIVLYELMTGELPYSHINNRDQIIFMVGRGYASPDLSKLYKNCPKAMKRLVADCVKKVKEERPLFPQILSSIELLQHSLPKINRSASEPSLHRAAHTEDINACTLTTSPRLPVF
Chain of B-Raf (V600E) (P15056 whole entry V600E): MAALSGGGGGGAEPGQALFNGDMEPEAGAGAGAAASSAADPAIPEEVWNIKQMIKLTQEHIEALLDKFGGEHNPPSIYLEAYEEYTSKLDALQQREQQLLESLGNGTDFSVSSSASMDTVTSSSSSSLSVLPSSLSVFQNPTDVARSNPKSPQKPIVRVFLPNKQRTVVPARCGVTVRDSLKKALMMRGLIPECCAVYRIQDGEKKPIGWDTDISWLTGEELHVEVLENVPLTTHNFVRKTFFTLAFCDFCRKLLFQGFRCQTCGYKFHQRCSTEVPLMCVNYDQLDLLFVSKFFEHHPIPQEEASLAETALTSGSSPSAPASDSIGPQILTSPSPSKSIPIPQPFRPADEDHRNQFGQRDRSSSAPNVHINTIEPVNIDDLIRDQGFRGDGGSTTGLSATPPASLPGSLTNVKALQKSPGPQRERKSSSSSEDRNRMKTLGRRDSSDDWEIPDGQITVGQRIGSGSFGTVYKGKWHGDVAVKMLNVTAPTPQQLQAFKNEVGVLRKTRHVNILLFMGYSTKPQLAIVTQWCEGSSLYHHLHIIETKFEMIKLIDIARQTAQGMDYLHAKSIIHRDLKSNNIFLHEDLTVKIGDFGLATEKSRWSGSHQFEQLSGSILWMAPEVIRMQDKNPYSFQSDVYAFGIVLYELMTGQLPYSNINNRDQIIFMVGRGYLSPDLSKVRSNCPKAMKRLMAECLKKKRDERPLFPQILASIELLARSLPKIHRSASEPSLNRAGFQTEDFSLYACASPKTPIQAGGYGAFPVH
Chain of B-Raf (P15056 whole entry): as the sequence (P15056 whole entry V600E) above, with E600V counted along it

On to `COc1cc(-c2ccc3ncnc(Nc4cc(O)ccc4Cl)c3c2)ccc1O` [Compound 59, 4-(4-(2-chloro-5-hydroxyphenylamino)quinazolin-6-yl)-2-methoxyphenol], for which the IC50 (as a rule, the concentration needed to halve the response being measured) with A549 was determined as 0.6 ± 0.3 µM; with COLO205, 4.5 ± 0.6 µM; against C-Raf it was 290 nM; in the assay with A375 it was 0.7 ± 0.1 µM; in the assay on MDA-MB-231, 0.9 ± 0.2 µM; against B-Raf (V600E), 64.7 nM. Also, at B-Raf, the half-inhibitory concentration (IC50) is 36.5 nM. On B-Raf, the inhibition (in general, the change of the read-out against control, counted positive when it falls) at 1 µM was 92.6%.
In the case of `COc1cc(-c2ccc3ncnc(Nc4cccc(O)c4Cl)c3c2)ccc1O` [Compound 60, 2-chloro-3-(6-(4-hydroxy-3-methoxyphenyl)quinazolin-4-ylamino)phenol], the half-maximal inhibitory concentration (IC50) with A549 was 1.3 ± 0.2 µM; in the assay with COLO205, 6.8 ± 0.16 µM; against C-Raf, 152 nM; in the assay on A375, 1.3 ± 0.3 µM; in the assay on MDA-MB-231, 1.7 ± 0.5 µM; on B-Raf (V600E) it was 56.5 nM. The molecule also had an IC50 against B-Raf of 39 nM. Also, at B-Raf, the inhibition at 1 µM worked out at 91%.
Regarding `COc1cc(-c2ccc3ncnc(Nc4cc(O)c(Cl)cc4Cl)c3c2)ccc1O` [Compound 61, 2,4-dichloro-5-(6-(4-hydroxy-3-methoxyphenyl)quinazolin-4-ylamino)phenol], the IC50 in the assay on A549 amounted to 1.6 ± 0.4 µM; in the assay with COLO205, 7.4 ± 1.9 µM; against C-Raf, 284 nM; with A375 it was 1.9 ± 0.5 µM; in the assay on MDA-MB-231, 2.9 ± 0.4 µM; against B-Raf (V600E), 59.9 nM. The molecule further came in with an IC50 on B-Raf of 40.1 nM. For the same molecule, on B-Raf, the inhibition at 1 µM worked out at 92.6%.
Take `Oc1ccc(-c2ccc3ncnc(Nc4cccc(O)c4)c3c2)cc1` [Compound 62, 3-(6-(4-hydroxyphenyl)quinazolin-4-ylamino)phenol]: the IC50 in the assay with A549 came to 3.7 ± 1.6 µM; in the assay with COLO205, 11.7 ± 2.5 µM; at C-Raf, 335 nM; in the assay on A375, 2.6 ± 0.1 µM; in the assay with MDA-MB-231 it was 7.2 ± 1.4 µM; against B-Raf (V600E), 60.1 nM. On B-Raf, this molecule displayed an IC50 of 32.5 nM. In addition, at B-Raf, the inhibition at 1 µM amounted to 93.8%.
In the case of `Oc1cccc(Nc2ncnc3ccc(-c4cccc(O)c4)cc23)c1` [Compound 63, 3-(6-(3-hydroxyphenyl)quinazolin-4-ylamino)phenol], the IC50 was determined as 5.3 ± 1 µM with A549; 7.1 ± 1.3 µM in the assay with COLO205; 300 nM on C-Raf; 2.3 ± 0.6 µM in the assay with A375; 9.5 ± 1.3 µM in the assay on MDA-MB-231; 51.7 nM at B-Raf (V600E). This molecule came in with an IC50 on B-Raf of 27.7 nM. Besides, the inhibition at 1 µM at B-Raf was determined as 93.4%.
Consider `COc1ccc(-c2ccc3ncnc(Nc4cccc(O)c4)c3c2)cc1` [Compound 64, 3-(6-(4-methoxyphenyl)quinazolin-4-ylamino)phenol], for which the IC50 with A549 was 11 ± 3.3 µM; in the assay on COLO205, 17.3 ± 1.9 µM; against C-Raf, 1230 nM; in the assay on A375, 6 ± 0.3 µM; in the assay on MDA-MB-231 it was 15.6 ± 0.8 µM; against B-Raf (V600E), 105 nM. This molecule also yielded a 50% inhibitory concentration (IC50) on B-Raf of 62.4 nM. For the same molecule, the inhibition at 1 µM at B-Raf was 91.9%.
For `COc1cc2ncnc(Nc3cccc(O)c3)c2cc1-c1ccc(N)cc1` [Compound 68, 3-(6-(4-aminophenyl)-7-methoxyquinazolin-4-ylamino)phenol], the half-inhibitory concentration (IC50) in the assay on A549 was determined as 7 ± 2.4 µM; with COLO205, 15.7 ± 4.1 µM; at C-Raf it was 860 nM; with A375, 4.9 ± 1.7 µM; with MDA-MB-231, 11.5 ± 3.8 µM; against B-Raf (V600E), 76.6 nM. This molecule also gave an IC50 at B-Raf of 55.8 nM. The inhibition at 1 µM on B-Raf was 83.7%.
For `COc1cccc(-c2ccc3ncnc(Nc4cccc5[nH]ncc45)c3c2)c1F` [Compound 74, 6-(2-fluoro-3-methoxyphenyl)-N-(1H-indazol-4-yl)quinazolin-4-amine], the half-maximal inhibitory concentration (IC50) with A549 was more than 50 µM; in the assay on COLO205, more than 50 µM; at C-Raf it was 751 nM; in the assay with A375 it was more than 50 µM; in the assay on MDA-MB-231, more than 50 µM; against B-Raf (V600E), 139 nM. The same molecule registered a 50% inhibitory concentration (IC50) at B-Raf of 114 nM. Besides, the inhibition at 1 µM at B-Raf stood at 91.2%.
Turning to `COc1ccc(-c2ccc3ncnc(Nc4cccc5[nH]ncc45)c3c2)cc1F` [Compound 75, 6-(3-fluoro-4-methoxyphenyl)-N-(1H-indazol-4-yl)quinazolin-4-amine], the IC50 with A549 was 9.6 ± 1.2 µM; in the assay on COLO205, 18.5 ± 1.1 µM; against C-Raf, 672 nM; with A375, 11.1 ± 0.8 µM; with MDA-MB-231, 11.6 ± 1.7 µM; against B-Raf (V600E), 221 nM. Further, at B-Raf, the half-inhibitory concentration (IC50) was 157 nM. At B-Raf, the inhibition at 1 µM was 85%.
With `COc1cc(-c2ccc3ncnc(Nc4cccc5[nH]ncc45)c3c2)ccc1F` [Compound 84, 6-(4-fluoro-3-methoxyphenyl)-N-(1H-indazol-4-yl)quinazolin-4-amine], the IC50 with A549 worked out at 8.9 ± 1.3 µM; with COLO205, 11.5 ± 1.3 µM; against C-Raf, 757 nM; in the assay on A375, 11.5 ± 1.9 µM; in the assay on MDA-MB-231, 14.8 ± 0.5 µM; on B-Raf (V600E), 195 nM. Moreover, the half-inhibitory concentration (IC50) at B-Raf worked out at 172 nM. Further, the inhibition at 1 µM at B-Raf came out at 83.1%.
As for `Fc1ccc(-c2ccc3ncnc(Nc4cccc5[nH]ncc45)c3c2)cc1F` [Compound 85, 6-(3,4-difluorophenyl)-N-(1H-indazol-4-yl)quinazolin-4-amine], the 50% inhibitory concentration (IC50) with A549 was determined as 14.2 ± 0.8 µM; with COLO205, 15.9 ± 4.1 µM; against C-Raf, 495 nM; with A375, 11.4 ± 3 µM; with MDA-MB-231 it was 23.2 ± 2 µM; against B-Raf (V600E) it was 209 nM. At B-Raf, the IC50 came to 174 nM. The inhibition at 1 µM on B-Raf came out at 83%.
Regarding `c1cc(Nc2ncnc3ccc(-c4ccc5c(c4)OCO5)cc23)c2cn[nH]c2c1` [Compound 96, 6-(benzo[d][1,3]dioxol-5-yl)-N-(1H-indazol-4-yl)quinazolin-4-amine], the IC50 in the assay on A549 came out at 14.2 ± 2.4 µM; with COLO205, 13 ± 2.4 µM; on C-Raf it was 568 nM; with A375, 7.7 ± 0.4 µM; with MDA-MB-231 it was 12.6 ± 1.8 µM; against B-Raf (V600E), 161 nM. Moreover, the 50% inhibitory concentration (IC50) on B-Raf was determined as 141 nM. At B-Raf, the inhibition at 1 µM amounted to 86.1%.
Take `NC(=O)c1cccc(-c2ccc3ncnc(Nc4cccc5[nH]ncc45)c3c2)c1` [Compound 97, 3-(4-(1H-indazol-4-ylamino)quinazolin-6-yl)benzamide]: the IC50 was more than 50 µM in the assay on A549; 12.7 ± 2.1 µM in the assay with COLO205; 584 nM on C-Raf; 24.5 ± 7.1 µM in the assay on A375; 12.7 ± 2 µM in the assay on MDA-MB-231; 151 nM on B-Raf (V600E). On B-Raf, this molecule came in with an IC50 of 112 nM. Further, the inhibition at 1 µM at B-Raf stood at 86.6%.
Consider `COc1ccc(-c2ccc3ncnc(Nc4cccc5[nH]ncc45)c3c2)cc1C=O` [Compound 98, 5-(4-(1H-indazol-4-ylamino)quinazolin-6-yl)-2-methoxybenzaldehyde], for which the half-maximal inhibitory concentration (IC50) with A549 was found to be 12.7 ± 5.3 µM; with COLO205 it was 9.6 ± 1.6 µM; on C-Raf, 338 nM; in the assay on A375, 7.2 ± 0.6 µM; in the assay on MDA-MB-231 it was 9.6 ± 1.6 µM; against B-Raf (V600E), 105 nM. The IC50 against B-Raf is 73.9 nM. For the same molecule, the inhibition at 1 µM on B-Raf worked out at 92.5%.
As to `COc1cc(-c2ccc3nccc(Nc4cccc(O)c4)c3c2)ccc1O` [Compound 100, 4-(4-(3-hydroxyphenylamino)quinolin-6-yl)-2-methoxyphenol], the IC50 in the assay on A549 came to 1.78 ± 0.2 µM; in the assay on COLO205, 5.2 ± 0.2 µM; against C-Raf, 136 nM; in the assay on A375, 1.4 ± 0.4 µM; with MDA-MB-231, 5.5 ± 0.5 µM; on B-Raf (V600E), 23 nM. The same molecule came in with an IC50 on B-Raf of 21 nM. In addition, the inhibition at 1 µM at B-Raf was 95.8%.
For `COc1cc(-c2ccc3nccc(Nc4cc(O)ccc4F)c3c2)ccc1O` [Compound 101, 4-(4-(2-fluoro-5-hydroxyphenylamino)quinolin-6-yl)-2-methoxyphenol], the IC50 with A549 worked out at 6.7 ± 0.1 µM; with COLO205, 21.1 ± 3.8 µM; at C-Raf, 96.1 nM; in the assay with A375, 2.3 ± 0.3 µM; in the assay with MDA-MB-231, 21.1 ± 3.8 µM; against B-Raf (V600E) it was 20.9 nM. Besides, the IC50 against B-Raf was 18.1 nM. In addition, the inhibition at 1 µM at B-Raf was found to be 97.1%.
Consider `N#Cc1cccc(-c2ccc3ncnc(Nc4cccc5[nH]ncc45)c3c2)c1` [Compound 102, 3-(4-(1H-indazol-4-ylamino)quinazolin-6-yl)benzonitrile], for which the IC50 is more than 50 µM in the assay with A549; more than 50 µM with COLO205; 294 nM at C-Raf; more than 50 µM in the assay with A375; more than 50 µM in the assay on MDA-MB-231; 199 nM at B-Raf (V600E). The molecule also returned an IC50 against B-Raf of 134 nM. On B-Raf, the inhibition at 1 µM worked out at 87%.
